Measurements as given in patent publication US8217035B2, “Pyrimidine derivatives used as PI-3-kinase inhibitors” (Novartis AG, priority 2006, dated 2012).
Read-outs that look alike come from different tables or passages of the source.

What was measured:
PI3 kinase alpha = PI3 kinase alpha (Homo sapiens, UniProt P42336); assay: PI3K ATP depletion assay (Biological Method 1, Assay 3; KinaseGlo luminescence); format: biochemical; conditions: ATP depletion assay, read-out: PI3 Kinase Alpha, IC50
Procedure, shortened: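 Compound in DMSO was mixed with 10 nM PI3 kinase and 5 μg/mL phosphatidylinositol, and the reaction was started with 2 μM ATP. It ran to about 50% ATP depletion and was stopped with KinaseGlo.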

[1] = tested on: A2780 ovarian cancer cells; assay: Cellular proliferation in A2780 cells, Cell Titer Glo (Biological Method 4); format: cell-based; conditions: Homo sapiens
Procedure, shortened: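 A2780 cells seeded at 1,000/well in DMEM with 10% FBS, at least 2 h before compound, then exposed 72 h at 37 °C, 5% CO2. Viable cells measured by Cell Titer Glo luminescence; EC50 calculated from duplicate conditions.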

[2] = ovarian cancer cell line A2780, Biological Method 4

PI3 kinase alpha, sequence (P42336 whole entry): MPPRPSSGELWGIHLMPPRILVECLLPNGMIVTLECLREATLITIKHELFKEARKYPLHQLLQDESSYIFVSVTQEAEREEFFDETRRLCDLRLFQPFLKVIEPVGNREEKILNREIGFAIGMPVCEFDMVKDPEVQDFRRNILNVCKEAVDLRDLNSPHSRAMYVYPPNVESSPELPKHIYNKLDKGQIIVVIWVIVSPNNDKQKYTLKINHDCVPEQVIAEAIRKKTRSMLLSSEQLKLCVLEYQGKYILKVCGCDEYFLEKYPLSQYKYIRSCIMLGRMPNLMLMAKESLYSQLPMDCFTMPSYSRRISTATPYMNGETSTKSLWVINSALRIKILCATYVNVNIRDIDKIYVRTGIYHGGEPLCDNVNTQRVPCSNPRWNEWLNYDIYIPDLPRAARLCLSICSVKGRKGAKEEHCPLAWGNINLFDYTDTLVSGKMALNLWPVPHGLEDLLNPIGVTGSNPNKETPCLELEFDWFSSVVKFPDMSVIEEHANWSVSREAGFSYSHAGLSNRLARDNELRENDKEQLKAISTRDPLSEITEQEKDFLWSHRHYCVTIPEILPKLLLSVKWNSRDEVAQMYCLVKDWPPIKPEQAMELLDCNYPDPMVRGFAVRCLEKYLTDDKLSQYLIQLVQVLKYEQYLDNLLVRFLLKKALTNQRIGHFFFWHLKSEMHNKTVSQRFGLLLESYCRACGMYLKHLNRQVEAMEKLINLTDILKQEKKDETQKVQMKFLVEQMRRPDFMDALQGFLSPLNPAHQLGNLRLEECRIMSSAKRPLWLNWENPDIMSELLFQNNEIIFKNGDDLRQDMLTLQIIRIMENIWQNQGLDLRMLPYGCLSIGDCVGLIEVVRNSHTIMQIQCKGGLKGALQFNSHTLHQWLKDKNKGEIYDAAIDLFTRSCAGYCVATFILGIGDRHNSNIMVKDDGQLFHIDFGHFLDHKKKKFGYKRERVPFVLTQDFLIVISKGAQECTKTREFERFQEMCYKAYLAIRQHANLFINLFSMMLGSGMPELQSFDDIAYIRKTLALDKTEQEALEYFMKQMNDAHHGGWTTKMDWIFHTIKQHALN
PI3 kinase alpha, sequence (P27986 whole entry partner): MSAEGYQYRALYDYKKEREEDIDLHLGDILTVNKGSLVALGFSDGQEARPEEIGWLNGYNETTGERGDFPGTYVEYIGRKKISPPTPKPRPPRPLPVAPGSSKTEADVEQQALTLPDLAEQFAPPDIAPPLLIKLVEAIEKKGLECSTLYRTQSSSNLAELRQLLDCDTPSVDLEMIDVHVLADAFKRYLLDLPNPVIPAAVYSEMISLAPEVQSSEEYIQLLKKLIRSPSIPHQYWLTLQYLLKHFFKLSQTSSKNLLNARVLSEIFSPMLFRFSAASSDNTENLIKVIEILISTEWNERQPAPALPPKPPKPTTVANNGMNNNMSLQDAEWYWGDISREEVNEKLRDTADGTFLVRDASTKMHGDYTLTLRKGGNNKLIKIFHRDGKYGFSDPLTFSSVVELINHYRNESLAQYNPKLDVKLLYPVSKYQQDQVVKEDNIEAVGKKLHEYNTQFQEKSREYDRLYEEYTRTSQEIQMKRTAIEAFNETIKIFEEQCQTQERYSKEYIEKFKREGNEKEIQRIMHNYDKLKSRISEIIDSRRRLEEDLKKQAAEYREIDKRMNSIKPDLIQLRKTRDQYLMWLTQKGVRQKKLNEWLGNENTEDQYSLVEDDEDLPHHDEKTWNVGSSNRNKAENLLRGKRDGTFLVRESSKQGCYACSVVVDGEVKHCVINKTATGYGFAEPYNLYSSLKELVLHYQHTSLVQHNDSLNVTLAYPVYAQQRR

| SMILES | IC50 (PI3 kinase alpha; Biological Method 1) [µM] | EC50 [1, 2] [µM] | IC50 (PI3 kinase alpha) [µM] | EC50 ([1]; ovarian cancer cell line A2780) [µM] |
| --- | --- | --- | --- | --- |
| Cc1c(-c2cnc(N)nc2)nc(N2CCOCC2)nc1-c1cncc(OCCN(C)C)c1 [Compound 270] | < 1 | < 25 | – | – |
| Nc1cc(C(F)(F)F)c(-c2cc(Nc3cccc(CN4CCOCC4)c3)nc(N3CCOCC3)n2)cn1 [Compound 314] | < 1 | < 25 | – | – |
| Nc1ncc(-c2cc(C(=O)Nc3cccnc3)nc(N3CCOCC3)n2)cn1 [Compound 231] | < 1 | < 10 | – | – |
| CC(C)(C)OC(=O)N1CCC(Oc2cc(-c3cnc(N)cc3C(F)(F)F)nc(N3CCOCC3)n2)CC1 [Compound 456] | – | – | < 1 | < 10 |
| CC(C)OC(=O)N1CCC(Oc2cc(-c3cnc(N)cc3C(F)(F)F)nc(N3CCOCC3)n2)CC1 [Compound 460] | – | – | < 1 | < 10 |
| Nc1ccc(-c2cc(Nc3ccc4cn[nH]c4c3)nc(N3CCOCC3)n2)cn1 [Compound 227] | < 1 | < 10 | – | – |
| Nc1ccc(-c2cc(Nc3cccc(S(N)(=O)=O)c3)nc(N3CCOCC3)n2)cn1 [Compound 362] | < 1 | < 10 | – | – |
| CC(=O)Nc1cccc(Nc2cc(-c3ccc(N)nc3)nc(N3CCOCC3)n2)c1 [Compound 363] | < 1 | < 10 | – | – |
| Cc1nc(N)ncc1-c1ccnc(N2CCOCC2)n1 [Compound 478] | – | – | < 1 | < 25 |
| Nc1ncc(-c2cc(NCC3CCCCC3)nc(N3CCOCC3)n2)cn1 [Compound 406] | – | – | < 1 | < 25 |
| CC(C)N1CCN(c2ccc(Nc3cc(-c4ccc(N)nc4)nc(N4CCOCC4)n3)cn2)CC1 [Compound 509] | – | – | < 1 | < 10 |
| CN1CCN(c2ccc(Nc3cc(-c4ccc(N)nc4)nc(N4CCOCC4)n3)cn2)CC1 [Compound 300] | < 1 | < 10 | – | – |
| CN1CCN(C(=O)c2cc(-c3cnc(N)nc3)nc(N3CCOCC3)n2)CC1 [Compound 235] | < 1 | < 10 | – | – |
| Nc1cc(C(F)(F)F)c(-c2cc(-c3cncc(S(=O)(=O)CCO)c3)nc(N3CCOCC3)n2)cn1 [Compound 265] | < 1 | < 10 | – | – |
| Nc1cc(C(F)(F)F)c(-c2cc(N3CCOC(c4ccccc4Cl)C3)nc(N3CCOCC3)n2)cn1 (stereo not shown) [Compound 337] | < 1 | < 25 | – | – |
| Nc1cc(C(F)(F)F)c(-c2cc(Nc3ccc(OC4CCOC4)nc3)nc(N3CCOCC3)n2)cn1 (stereo not shown) [Compound 268] | < 1 | < 10 | – | – |
| COc1ccc(Nc2nc(N3CCOCC3)nc(-c3cnc(N)nc3)c2C)cn1 [Compound 480] | – | – | < 1 | < 10 |
| Cc1c(-c2cnc(N)nc2)nc(N2CCOCC2)nc1-c1cccc(S(C)(=O)=O)c1 [Compound 548] | – | – | < 1 | < 10 |
| CNc1cc(-c2cnc(N)nc2)nc(N2CCOCC2)n1 [Compound 401] | – | – | < 1 | < 25 |
| Nc1ccc(-c2cc(Nc3ccccc3F)nc(N3CCOCC3)n2)cn1 [Compound 440] | – | – | < 1 | < 10 |
| CC(=O)N1CCC[C@@H](Oc2cc(-c3cnc(N)cc3C(F)(F)F)nc(N3CCOCC3)n2)C1 [Compound 453] | – | – | < 1 | < 10 |
| COC(=O)N1CC[C@@H](Oc2cc(-c3cnc(N)cc3C(F)(F)F)nc(N3CCOCC3)n2)C1 [Compound 539] | – | – | < 1 | < 10 |

| SMILES | IC50 (PI3 kinase alpha; Biological Method 1) [µM] | EC50 [1, 2] [µM] | IC50 (PI3 kinase alpha) [µM] | EC50 ([1]; ovarian cancer cell line A2780) [µM] |
| --- | --- | --- | --- | --- |
| Nc1ncc(-c2cc(C(F)(F)F)nc(N3CCOCC3)n2)cn1 [Compound 472] | – | – | < 1 | < 10 |
| Nc1ccc(-c2cc(Sc3ccccn3)nc(N3CCOCC3)n2)cn1 [Compound 295] | < 1 | < 10 | – | – |
| CC(C)OC(=O)N1CC[C@H](Oc2cc(-c3cnc(N)cc3C(F)(F)F)nc(N3CCOCC3)n2)C1 [Compound 534] | – | – | < 1 | < 10 |
| Nc1ncc(-c2nc(N3CCOCC3)ncc2C(F)(F)F)cn1 [Compound 474] | – | – | < 1 | < 25 |
| CN1CCC(Oc2cc(-c3cnc(N)nc3)nc(N3CCOCC3)n2)CC1 [Compound 514] | – | – | < 1 | < 10 |
| COc1nc2ccccc2cc1Nc1cc(-c2ccc(N)nc2)nc(N2CCOCC2)n1 [Compound 287] | < 1 | < 10 | – | – |
| CS(=O)(=O)N1CCC(Oc2cc(-c3cnc(N)cc3C(F)(F)F)nc(N3CCOCC3)n2)CC1 [Compound 461] | – | – | < 1 | < 10 |
| CS(=O)(=O)Nc1cccc(Nc2cc(-c3ccc(N)nc3)nc(N3CCOCC3)n2)c1 [Compound 361] | < 1 | < 10 | – | – |
| Nc1cc(C(F)(F)F)c(-c2cc(Oc3ccc4ncccc4c3)nc(N3CCOCC3)n2)cn1 [Compound 217] | < 1 | < 10 | – | – |
| Nc1ncc(-c2cc(N3CCOC(c4ccccc4)C3)nc(N3CCOCC3)n2)c(C(F)(F)F)n1 (stereo not shown) [Compound 343] | < 1 | < 25 | – | – |
| Nc1ccc(-c2cc(-c3ccc(N)nc3)nc(N3CCOCC3)n2)cn1 [Compound 245] | < 1 | < 10 | – | – |
| Cc1cnc(N2CCOCC2)nc1-c1cnc(N)nc1 [Compound 482] | – | – | < 1 | < 10 |
| Nc1ncc(-c2nc(N3CCOCC3)ncc2N)cn1 [Compound 258] | < 1 | < 25 | – | – |
| N#Cc1ccccc1Nc1cc(-c2ccc(N)nc2)nc(N2CCOCC2)n1 [Compound 441] | – | – | < 1 | < 10 |
| CC(C)(C)NS(=O)(=O)c1ccccc1-c1cc(-c2cnc(N)cc2C(F)(F)F)nc(N2CCOCC2)n1 [Compound 544] | – | – | < 1 | < 25 |
| CC(=O)Nc1ccc(Nc2cc(-c3ccc(N)nc3)nc(N3CCOCC3)n2)cc1 [Compound 360] | < 1 | < 10 | – | – |
| CN(c1cc(-c2ccc(N)nc2)nc(N2CCOCC2)n1)C1CCOCC1 [Compound 368] | < 1 | < 10 | – | – |
| COc1ccc(CCNc2cc(-c3ccc(N)nc3)nc(N3CCOCC3)n2)cc1 [Compound 302] | < 10 | < 25 | – | – |
| N#Cc1cccc(Nc2cc(-c3ccc(N)nc3)nc(N3CCOCC3)n2)c1 [Compound 437] | – | – | < 1 | < 10 |
| CC(C)C(=O)N1CCC(Oc2cc(-c3cnc(N)cc3C(F)(F)F)nc(N3CCOCC3)n2)CC1 [Compound 458] | – | – | < 1 | < 10 |
| Nc1cc(Cl)c(-c2cc(Nc3ccncc3C(F)(F)F)nc(N3CCOCC3)n2)cn1 [Compound 219] | < 1 | < 10 | – | – |
| Nc1ccc(-c2cc(Nc3cccc4[nH]ncc34)nc(N3CCOCC3)n2)cn1 [Compound 347] | < 1 | < 10 | – | – |

| SMILES | IC50 (PI3 kinase alpha; Biological Method 1) [µM] | EC50 [1, 2] [µM] | IC50 (PI3 kinase alpha) [µM] | EC50 ([1]; ovarian cancer cell line A2780) [µM] |
| --- | --- | --- | --- | --- |
| Nc1ncc(-c2cc(Nc3cnccc3C(F)(F)F)nc(N3CCOCC3)n2)cn1 [Compound 390] | < 1 | < 10 | – | – |
| Nc1ncc(-c2cc(-c3cnc(N)nc3)nc(N3CCOCC3)n2)cn1 [Compound 279] | < 1 | < 10 | – | – |
| Nc1cc(C(F)(F)F)c(-c2cc(Nc3ccc(-c4nn[nH]n4)nc3)nc(N3CCOCC3)n2)cn1 [Compound 282] | < 1 | < 25 | – | – |
| Nc1ccc(-c2cc(Nc3ccc(NCCN4CCCC4)nc3)nc(N3CCOCC3)n2)cn1 [Compound 497] | – | – | < 1 | < 10 |
| CC(=O)N1CCC(Oc2ccc(Nc3cc(-c4cnc(N)cc4C(F)(F)F)nc(N4CCOCC4)n3)cn2)CC1 [Compound 262] | < 1 | < 10 | – | – |
| N#Cc1cnc(N2CCOCC2)nc1-c1cnc(N)nc1 [Compound 418] | – | – | < 1 | < 25 |
| Nc1cc(C(F)(F)F)c(-c2cc(N3CCOC(c4cccnc4)C3)nc(N3CCOCC3)n2)cn1 (stereo not shown) [Compound 338] | < 1 | < 10 | – | – |
| COc1ncccc1Nc1cc(-c2ccc(N)nc2)nc(N2CCOCC2)n1 [Compound 448] | – | – | < 1 | < 10 |
| CS(=O)(=O)c1cncc(-c2cc(-c3cnc(N)cc3C(F)(F)F)nc(N3CCOCC3)n2)c1 [Compound 266] | < 1 | < 10 | – | – |
| Cc1nc(N)ncc1-c1nc(N2CCOCC2)nc(Cl)c1C [Compound 468] | – | – | < 1 | < 25 |
| NC(=O)c1ccccc1-c1cc(-c2ccc(N)nc2)nc(N2CCOCC2)n1 [Compound 254] | < 1 | < 25 | – | – |
| CC(=O)Nc1cccc(-c2cc(-c3ccc(N)nc3)nc(N3CCOCC3)n2)c1 [Compound 250] | < 1 | < 10 | – | – |
| Nc1cc(C(F)(F)F)c(-c2cc(N3CCOC(c4ccc(C(F)(F)F)cc4)C3)nc(N3CCOCC3)n2)cn1 (stereo not shown) [Compound 334] | < 1 | < 10 | – | – |
| COc1cccc(CCNc2cc(-c3ccc(N)nc3)nc(N3CCOCC3)n2)c1 [Compound 303] | < 1 | < 10 | – | – |
| Nc1ccc(-c2cc(N3CCOCC3)nc(N3CCOCC3)n2)c(=O)[nH]1 [Compound 551] | – | – | < 1 | < 10 |
| CN(C)c1nc2ccccc2cc1-c1cc(-c2ccc(N)nc2)nc(N2CCOCC2)n1 [Compound 500] | – | – | < 1 | < 10 |
| CS(=O)(=O)N1CC[C@H](Oc2cc(-c3cnc(N)cc3C(F)(F)F)nc(N3CCOCC3)n2)C1 [Compound 524] | – | – | < 1 | < 10 |
| Nc1ncc(-c2cc(N3CCOc4ccccc43)nc(N3CCOCC3)n2)c(C(F)(F)F)n1 [Compound 546] | – | – | < 1 | < 10 |
| Nc1cc(C(F)(F)F)c(-c2cc(N3CCOC(c4ccccc4)C3)nc(N3CCOCC3)n2)cn1 (stereo not shown) [Compound 344] | < 1 | < 10 | – | – |
| Nc1cc(C(F)(F)F)c(-c2cc(Nc3cc(Cl)ccn3)nc(N3CCOCC3)n2)cn1 [Compound 241] | < 1 | < 10 | – | – |
| CN1CCC(Oc2ccc(Nc3cc(-c4ccc(N)nc4)nc(N4CCOCC4)n3)cn2)CC1 [Compound 276] | < 1 | < 10 | – | – |
